As usually defined, the MIC is the lowest concentration that inhibits growth of the organism. As a reminder, the MIC90 is an inhibitory concentration at the 90% level, which refers to growth in some studies and to a panel of isolates in others. Higher therefore signals lower susceptibility.

These results are taken from ChEMBL document CHEMBL2086297, “Reduced pulmonary surfactant interaction of daptomycin analogs via tryptophan replacement with alternative amino acids” (2012).

Type in all cases: functional
Assay [1] deals with Staphylococcus aureus. In words: Antibacterial activity against methicillin-susceptible Staphylococcus aureus ATCC 29213 by broth microdilution method in presence of 4% human serum albumin. Background: Dilution methods test growth across graded concentrations, often in twofold steps.
The subject of assay [2] is Staphylococcus aureus. The assay is described as follows: Antibacterial activity against methicillin-susceptible Staphylococcus aureus ATCC 29213 by broth microdilution method in presence of 1% pulmonary surfactant. As to conditions: ATCC 29213, Pulmonary surfactant.
The test system of assay [3] is Staphylococcus aureus. The assay is described as follows: Antibacterial activity against methicillin-susceptible Staphylococcus aureus ATCC 29213 grown on calcium supplemented Mueller-Hinton broth by broth microdilution method.
For assay [4], the system named is Staphylococcus aureus. The assay is described as follows: Antibacterial activity against methicillin-susceptible Staphylococcus aureus ATCC 29213 by broth microdilution method in presence of 5% pulmonary surfactant. As to conditions: ATCC 29213, Pulmonary surfactant.
The next assay relates to Streptococcus pneumoniae. In words: Antibacterial activity against Streptococcus pneumoniae.

Converted amounts (≈) assume the structure as drawn.

With `CCCCCCCCCC(=O)N[C@@H](Cc1c[nH]c2ccccc12)C(=O)N[C@H](CC(N)=O)C(=O)N[C@@H](CC(=O)O)C(=O)N[C@@H]1C(=O)NCC(=O)N[C@@H](CCCN)C(=O)N[C@@H](CC(=O)O)C(=O)N[C@H](C)C(=O)N[C@@H](CC(=O)O)C(=O)NCC(=O)N[C@H](CO)C(=O)N[C@@H]([C@H](C)CC(=O)O)C(=O)N[C@@H](CC(=O)c2ccccc2N)C(=O)O[C@@H]1C`, the MIC with Staphylococcus aureus [1] was 2 µg/mL; in the assay with Staphylococcus aureus [2], 16 µg/mL; in the assay with Staphylococcus aureus [3] it was 1 µg/mL (≈ 0.617 µM); in the assay on Staphylococcus aureus [4], more than 32 µg/mL. The compound further came in with an MIC90 with Streptococcus pneumoniae of 0.06 µg/mL (≈ 0.037 µM).

Consider `CCCCCCCCCC(=O)N[C@@H](Cc1ccc(F)cc1)C(=O)N[C@@H](CC(N)=O)C(=O)N[C@@H](CC(=O)O)C(=O)N[C@@H]1C(=O)NCC(=O)N[C@@H](CCCN)C(=O)N[C@@H](CC(=O)O)C(=O)N[C@H](C)C(=O)N[C@@H](CC(=O)O)C(=O)NCC(=O)N[C@H](CO)C(=O)N[C@@H]([C@@H](C)CC(=O)O)C(=O)N[C@@H](CC(=O)c2ccccc2N)C(=O)O[C@@H]1C`, for which the MIC in the assay with Staphylococcus aureus [1] came to 8 µg/mL; with Staphylococcus aureus [2] it was 8 µg/mL; with Staphylococcus aureus [3] it was 2 µg/mL (≈ 1.25 µM); in the assay with Staphylococcus aureus [4], 16 µg/mL.

For `CO/N=C(\C(=O)N[C@@H]1C(=O)N2C(C(=O)O)=C(CSc3nc(=O)c(O)nn3C)CS[C@H]12)c1csc(N)n1` [CEFTRIAXONE], the MIC with Staphylococcus aureus [1] came to 8 µg/mL; in the assay with Staphylococcus aureus [2], 2 µg/mL; in the assay with Staphylococcus aureus [3] it was 2 µg/mL (≈ 3.61 µM); in the assay with Staphylococcus aureus [4], 2 µg/mL.

In the case of `CCCCCCCCCC(=O)N[C@@H](Cc1ccc(N)cc1)C(=O)N[C@@H](CC(N)=O)C(=O)N[C@@H](CC(=O)O)C(=O)N[C@@H]1C(=O)NCC(=O)N[C@@H](CCCN)C(=O)N[C@@H](CC(=O)O)C(=O)N[C@H](C)C(=O)N[C@@H](CC(=O)O)C(=O)NCC(=O)N[C@H](CO)C(=O)N[C@@H]([C@@H](C)CC(=O)O)C(=O)N[C@@H](CC(=O)c2ccccc2N)C(=O)O[C@@H]1C`, the MIC in the assay on Staphylococcus aureus [1] amounted to 32 µg/mL; with Staphylococcus aureus [2], 16 µg/mL; with Staphylococcus aureus [3], 16 µg/mL (≈ 10 µM); with Staphylococcus aureus [4], 32 µg/mL.

With `CCCCCCCCCC(=O)N[C@@H](CCc1ccccc1)C(=O)N[C@@H](CC(N)=O)C(=O)N[C@@H](CC(=O)O)C(=O)N[C@@H]1C(=O)NCC(=O)N[C@@H](CCCN)C(=O)N[C@@H](CC(=O)O)C(=O)N[C@H](C)C(=O)N[C@@H](CC(=O)O)C(=O)NCC(=O)N[C@H](CO)C(=O)N[C@@H]([C@@H](C)CC(=O)O)C(=O)N[C@@H](CC(=O)c2ccccc2N)C(=O)O[C@@H]1C`, the MIC turned out to be 4 µg/mL with Staphylococcus aureus [1], 8 µg/mL with Staphylococcus aureus [2], 1 µg/mL (≈ 0.627 µM) in the assay on Staphylococcus aureus [3] and 32 µg/mL with Staphylococcus aureus [4].

As to `CCCCCCCCCC(=O)N[C@@H](COc1ccccc1)C(=O)N[C@@H](CC(N)=O)C(=O)N[C@@H](CC(=O)O)C(=O)N[C@@H]1C(=O)NCC(=O)N[C@@H](CCCN)C(=O)N[C@@H](CC(=O)O)C(=O)N[C@H](C)C(=O)N[C@@H](CC(=O)O)C(=O)NCC(=O)N[C@H](CO)C(=O)N[C@@H]([C@@H](C)CC(=O)O)C(=O)N[C@@H](CC(=O)c2ccccc2N)C(=O)O[C@@H]1C`, the MIC is 32 µg/mL in the assay on Staphylococcus aureus [1], 32 µg/mL in the assay with Staphylococcus aureus [2], 4 µg/mL (≈ 2.5 µM) in the assay with Staphylococcus aureus [3] and more than 32 µg/mL in the assay with Staphylococcus aureus [4].

Regarding `CCCCCCCCCC(=O)N[C@@H](Cc1ccc(C(=O)O)cc1)C(=O)N[C@@H](CC(N)=O)C(=O)N[C@@H](CC(=O)O)C(=O)N[C@@H]1C(=O)NCC(=O)N[C@@H](CCCN)C(=O)N[C@@H](CC(=O)O)C(=O)N[C@H](C)C(=O)N[C@@H](CC(=O)O)C(=O)NCC(=O)N[C@H](CO)C(=O)N[C@@H]([C@@H](C)CC(=O)O)C(=O)N[C@@H](CC(=O)c2ccccc2N)C(=O)O[C@@H]1C`, the MIC with Staphylococcus aureus [1], with Staphylococcus aureus [2], with Staphylococcus aureus [3] and with Staphylococcus aureus [4] was more than 32 µg/mL each time.

For `CCCCCCCCCC(=O)N[C@@H](Cc1ccccc1OC)C(=O)N[C@@H](CC(N)=O)C(=O)N[C@@H](CC(=O)O)C(=O)N[C@@H]1C(=O)NCC(=O)N[C@@H](CCCN)C(=O)N[C@@H](CC(=O)O)C(=O)N[C@H](C)C(=O)N[C@@H](CC(=O)O)C(=O)NCC(=O)N[C@H](CO)C(=O)N[C@@H]([C@@H](C)CC(=O)O)C(=O)N[C@@H](CC(=O)c2ccccc2N)C(=O)O[C@@H]1C`, the minimum inhibitory concentration (MIC) with Staphylococcus aureus [1] was 8 µg/mL; in the assay with Staphylococcus aureus [2], 2 µg/mL; with Staphylococcus aureus [3], 2 µg/mL (≈ 1.24 µM); with Staphylococcus aureus [4], 4 µg/mL.

Take `CCCCCCCCCC(=O)N[C@@H](Cc1ccccc1)C(=O)N[C@@H](CC(N)=O)C(=O)N[C@@H](CC(=O)O)C(=O)N[C@@H]1C(=O)NCC(=O)N[C@@H](CCCN)C(=O)N[C@@H](CC(=O)O)C(=O)N[C@H](C)C(=O)N[C@@H](CC(=O)O)C(=O)NCC(=O)N[C@H](CO)C(=O)N[C@@H]([C@@H](C)CC(=O)O)C(=O)N[C@@H](CC(=O)c2ccccc2N)C(=O)O[C@@H]1C`: the MIC in the assay with Staphylococcus aureus [1] turned out to be 4 µg/mL; with Staphylococcus aureus [2], 4 µg/mL; with Staphylococcus aureus [3], 2 µg/mL (≈ 1.26 µM); with Staphylococcus aureus [4], 8 µg/mL.

For `CCCCCCCCCC(=O)N[C@@H](Cc1ccc(OCC)cc1)C(=O)N[C@@H](CC(N)=O)C(=O)N[C@@H](CC(=O)O)C(=O)N[C@@H]1C(=O)NCC(=O)N[C@@H](CCCN)C(=O)N[C@@H](CC(=O)O)C(=O)N[C@H](C)C(=O)N[C@@H](CC(=O)O)C(=O)NCC(=O)N[C@H](CO)C(=O)N[C@@H]([C@@H](C)CC(=O)O)C(=O)N[C@@H](CC(=O)c2ccccc2N)C(=O)O[C@@H]1C`, the minimum inhibitory concentration (MIC) turned out to be 8 µg/mL in the assay with Staphylococcus aureus [1], 4 µg/mL in the assay on Staphylococcus aureus [2], 4 µg/mL (≈ 2.46 µM) in the assay on Staphylococcus aureus [3] and 16 µg/mL in the assay with Staphylococcus aureus [4].

Consider `CCCCCCCCCC(=O)N[C@@H](Cc1ccc(O)cc1)C(=O)N[C@@H](CC(N)=O)C(=O)N[C@@H](CC(=O)O)C(=O)N[C@@H]1C(=O)NCC(=O)N[C@@H](CCCN)C(=O)N[C@@H](CC(=O)O)C(=O)N[C@H](C)C(=O)N[C@@H](CC(=O)O)C(=O)NCC(=O)N[C@H](CO)C(=O)N[C@@H]([C@@H](C)CC(=O)O)C(=O)N[C@@H](CC(=O)c2ccccc2N)C(=O)O[C@@H]1C`, for which the MIC in the assay with Staphylococcus aureus [1], with Staphylococcus aureus [2], in the assay with Staphylococcus aureus [3] and in the assay with Staphylococcus aureus [4] was more than 32 µg/mL throughout.
